Experiment [1] deals with T1, human muscarinic M1 receptor (Homo sapiens, UniProt P11229).
T1 sequence (P11229 1-460): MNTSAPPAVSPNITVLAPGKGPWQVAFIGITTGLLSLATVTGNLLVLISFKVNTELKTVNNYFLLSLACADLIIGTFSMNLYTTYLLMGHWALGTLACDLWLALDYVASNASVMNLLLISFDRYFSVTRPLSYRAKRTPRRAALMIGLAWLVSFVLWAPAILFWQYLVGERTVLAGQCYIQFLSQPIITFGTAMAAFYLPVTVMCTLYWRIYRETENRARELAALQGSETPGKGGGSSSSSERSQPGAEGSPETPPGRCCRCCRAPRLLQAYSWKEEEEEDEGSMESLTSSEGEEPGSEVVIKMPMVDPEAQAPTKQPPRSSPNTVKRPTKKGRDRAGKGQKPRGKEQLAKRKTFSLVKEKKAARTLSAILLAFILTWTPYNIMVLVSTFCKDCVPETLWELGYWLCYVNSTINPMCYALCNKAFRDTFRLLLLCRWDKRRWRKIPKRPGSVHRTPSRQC
The experiment can be described thus: Alphascreen Surefire phospho-ERK1/2 functional assay, M1. Particulars: for EC50 / % Emax cf. ACh, M1: CHO cells stably expressing human M1; for EC50: phospho-ERK1/2, * = variable results, read-out: pEC50 M1 (converted); for Emax: CHO, read-out: % Emax cf. ACh, M1, CHO cells stably expressing human M1; for Emax / % Emax cf. ACh, M1: relative to ACh. The experiment is classed as cell-based. (In general: Bead proximity is the source of the signal in Alpha formats.)

The target of experiment [2] is T2, human muscarinic M4 receptor (Homo sapiens, UniProt P08173).
T2 construct: expressed in transfected cells
T2 sequence (P08173 1-479): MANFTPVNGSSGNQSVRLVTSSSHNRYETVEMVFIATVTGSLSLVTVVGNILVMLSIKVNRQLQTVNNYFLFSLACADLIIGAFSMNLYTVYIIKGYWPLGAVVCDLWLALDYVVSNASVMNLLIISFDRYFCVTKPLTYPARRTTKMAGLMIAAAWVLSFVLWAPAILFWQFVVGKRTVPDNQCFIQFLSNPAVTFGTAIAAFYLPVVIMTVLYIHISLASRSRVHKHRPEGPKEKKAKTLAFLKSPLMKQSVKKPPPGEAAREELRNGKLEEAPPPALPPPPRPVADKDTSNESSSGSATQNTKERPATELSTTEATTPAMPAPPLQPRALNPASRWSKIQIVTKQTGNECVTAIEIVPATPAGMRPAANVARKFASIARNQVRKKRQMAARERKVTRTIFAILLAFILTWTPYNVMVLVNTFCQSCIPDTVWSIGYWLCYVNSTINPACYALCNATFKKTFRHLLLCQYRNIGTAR
As to the kind of experiment: Alphascreen Surefire phospho-ERK1/2 functional assay, M4. The experiment is classed as cell-based. Particulars: for EC50 / % Emax cf. ACh, M4: CHO cells stably expressing human M4; for EC50: phospho-ERK1/2, * = variable results, read-out: pEC50 M4 (converted); for Emax: CHO, read-out: % Emax cf. ACh, M4, CHO cells stably expressing human M4; for Emax / % Emax cf. ACh, M4: relative to ACh.

The target in experiment [3] is human muscarinic M3 receptor (Homo sapiens, UniProt P20309). As to the kind of experiment: Alphascreen Surefire phospho-ERK1/2 functional assay, M3. To be noted: for Emax: CHO, read-out: % Emax cf. ACh, M3, CHO cells stably expressing human M3; for Emax / % Emax cf. ACh, M3: relative to ACh; for EC50: pEC50 M3, CHO cells stably expressing human M3; for EC50 / pEC50 M3: phospho-ERK1/2, * = variable results; for pEC50 M3 / % Emax cf. ACh, M3: CHO cells stably expressing human M3.

The target in experiment [4] is T3, human muscarinic M2 receptor (Homo sapiens, UniProt P08172).
T3 sequence (P08172 1-466): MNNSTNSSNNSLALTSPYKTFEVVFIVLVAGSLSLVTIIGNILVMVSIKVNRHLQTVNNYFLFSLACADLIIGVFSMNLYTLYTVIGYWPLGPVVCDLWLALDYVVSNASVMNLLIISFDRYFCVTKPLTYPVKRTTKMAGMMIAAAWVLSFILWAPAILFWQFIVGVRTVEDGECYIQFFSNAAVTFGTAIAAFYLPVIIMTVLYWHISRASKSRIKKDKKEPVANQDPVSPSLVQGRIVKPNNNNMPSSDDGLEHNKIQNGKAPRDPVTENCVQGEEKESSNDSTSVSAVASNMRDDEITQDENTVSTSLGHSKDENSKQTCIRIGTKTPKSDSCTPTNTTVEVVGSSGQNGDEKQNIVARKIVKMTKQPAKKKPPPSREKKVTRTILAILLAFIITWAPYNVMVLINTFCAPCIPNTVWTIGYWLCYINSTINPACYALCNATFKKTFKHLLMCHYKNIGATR
As to the kind of experiment: Alphascreen Surefire phospho-ERK1/2 functional assay, M2. Particulars: for Emax: CHO, read-out: % Emax cf. ACh, M2, CHO cells stably expressing human M2; for Emax / % Emax cf. ACh, M2: relative to ACh; for pEC50 M2 / % Emax cf. ACh, M2: CHO cells stably expressing human M2; for pEC50 M2: phospho-ERK1/2, * = variable results.

SMILES strings stand for the structures. Where only a bound is given, the exact number is not on record here.

Usually Emax stands for the size of the effect at its maximum, as opposed to the concentration needed.

Sequence of human muscarinic M3 receptor (P20309 whole entry): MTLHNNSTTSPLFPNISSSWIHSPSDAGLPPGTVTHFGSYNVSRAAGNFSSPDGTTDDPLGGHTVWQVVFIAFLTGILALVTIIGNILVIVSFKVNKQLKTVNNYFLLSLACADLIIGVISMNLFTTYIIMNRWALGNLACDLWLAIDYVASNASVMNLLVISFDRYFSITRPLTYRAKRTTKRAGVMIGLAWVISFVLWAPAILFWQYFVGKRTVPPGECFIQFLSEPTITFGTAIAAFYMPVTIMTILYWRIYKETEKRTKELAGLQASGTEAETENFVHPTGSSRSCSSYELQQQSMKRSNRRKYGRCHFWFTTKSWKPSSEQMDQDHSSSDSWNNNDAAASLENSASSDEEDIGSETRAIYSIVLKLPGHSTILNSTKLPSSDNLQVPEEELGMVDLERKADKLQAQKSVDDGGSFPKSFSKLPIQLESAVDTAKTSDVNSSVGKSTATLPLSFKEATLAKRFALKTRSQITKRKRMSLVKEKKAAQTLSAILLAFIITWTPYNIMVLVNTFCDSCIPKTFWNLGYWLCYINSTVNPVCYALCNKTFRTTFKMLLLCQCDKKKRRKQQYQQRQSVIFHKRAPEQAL

With `CCOC(=O)N1CCC2(CC(N3CCC([C@@H]4CCCN4C(=O)NC4CCC4)CC3)C2)C1` (single isomer, unassigned) [2-30 Isomer 2], the EC50 in experiment [1] is 501 nM; in experiment [2] it was 15.8 nM; in experiment [3], more than 20000 nM; in experiment [4], more than 20000 nM. Further, the Emax in experiment [1] is 34%; in experiment [2] it was 97%; in experiment [3], 13%; in experiment [4] it was 52%.
`CCOC(=O)N1CCC2(CC(N3CCC([C@@H]4CCCN4C(=O)NCCOC)CC3)C2)C1` (single isomer, unassigned) [2-31 Isomer 2]: the EC50 was 126 nM in experiment [1], 3.16 nM in experiment [2], more than 20000 nM in experiment [3] and more than 20000 nM in experiment [4]. The Emax is 93% in experiment [1], 108% in experiment [2], 7% in experiment [3] and 7% in experiment [4].
For the compound `CCOC(=O)N1CCC2(CC(N3CCC([C@@H]4CCCN4C(=O)N4CCCC4)CC3)C2)C1` (single isomer, unassigned) [2-32 Isomer 2], the EC50 is 2510 nM in experiment [1], 12.6 nM in experiment [2], more than 20000 nM in experiment [3] and more than 20000 nM in experiment [4]. Besides, the Emax in experiment [1] was 69%; in experiment [2], 110%; in experiment [3] it was 11%; in experiment [4], 52%.
For the compound `CCOC(=O)N1CCC2(CC(N3CCC([C@@H]4CCCN4C(=O)NOC)CC3)C2)C1` (single isomer, unassigned) [2-33 Isomer 1], the EC50 in experiment [1] was 398 nM; in experiment [2], 7.94 nM; in experiment [3], more than 20000 nM; in experiment [4], more than 20000 nM. For the same compound, the “% Emax cf. ACh, M1” value in experiment [1] is given as 86%. Further, in experiment [2], the “% Emax cf. ACh, M4” value is listed as 109%. Further, the Emax in experiment [3] was determined as 3%; in experiment [4], 8%.
`CCOC(=O)N1CCC2(CC(N3CCC([C@@H]4CCCN4C(=O)NOC)CC3)C2)C1` (single isomer, unassigned) [2-33 Isomer 2]: in experiment [1], the EC50 is more than 20000 nM and the “% Emax cf. ACh, M1” value was found to be 4%. For the same compound, in experiment [2], the EC50 is 20 nM and the “% Emax cf. ACh, M4” value is given as 65%. Also, in experiment [3], the “pEC50 M3” value is less than 4.7 and the “% Emax cf. ACh, M3” value came out at 5%. In experiment [4], the “pEC50 M2” value is less than 4.7 and the “% Emax cf. ACh, M2” value is 5%.
Consider `CCOC(=O)N1CCC2(CC(N3CCC([C@@H]4CCCN4C(=O)N(C)OC)CC3)C2)C1` (single isomer, unassigned) [2-34 Isomer 1], for which, in experiment [1], the EC50 was 2000 nM and the Emax turned out to be 74%. Moreover, in experiment [2], the EC50 was 25.1 nM and the “% Emax cf. ACh, M4” value is on record as 89%. For the same compound, in experiment [3], the “% Emax cf. ACh, M3” value is on record as 8% and the EC50 is more than 20000 nM. Moreover, in experiment [4], the EC50 is more than 20000 nM and the “% Emax cf. ACh, M2” value is 16%.
On to `CCOC(=O)N1CCC2(CC(N3CCC([C@@H]4CCCN4C(=O)N(C)OC)CC3)C2)C1` (single isomer, unassigned) [2-34 Isomer 2], for which, in experiment [1], the EC50 is 3160 nM and the “% Emax cf. ACh, M1” value was found to be 56%. Besides, in experiment [2], the EC50 was 251 nM and the “% Emax cf. ACh, M4” value was found to be 58%. In experiment [3], the “pEC50 M3” value was less than 4.7 and the “% Emax cf. ACh, M3” value is 39%. In experiment [4], the “pEC50 M2” value is recorded as less than 4.7 and the “% Emax cf. ACh, M2” value is 3%.
Take `CCOC(=O)N1CCC2(CC(N3CCC([C@@H]4CCCN4C(=O)NC4(C)CCC4)CC3)C2)C1` (single isomer, unassigned) [2-35 Isomer 2]: the EC50 in experiment [1] was 398 nM; in experiment [2] it was 15.8 nM; in experiment [3], more than 20000 nM; in experiment [4] it was more than 20000 nM. Besides, the maximal effect (Emax) worked out at 108% in experiment [1], 92% in experiment [2], 4% in experiment [3] and 1% in experiment [4].
In the case of `CCOC(=O)N1CCC2(CC(N3CCC([C@@H]4CCCN4C(=O)NC4(C)COC4)CC3)C2)C1` (single isomer, unassigned) [2-36 Isomer 2], the EC50 in experiment [1] is 158 nM; in experiment [2] it was 6.31 nM; in experiment [3] it was more than 20000 nM; in experiment [4], more than 20000 nM. The Emax came out at 89% in experiment [1], 113% in experiment [2], 5% in experiment [3] and 3% in experiment [4].
On to `CCOC(=O)N1CCC2(CC(N3CCC([C@@H]4CCCN4C(=O)N4CCC(F)(F)C4)CC3)C2)C1` (single isomer, unassigned) [2-37 Isomer 2], for which the EC50 is 3160 nM in experiment [1], 20 nM in experiment [2], more than 20000 nM in experiment [3] and more than 20000 nM in experiment [4]. In addition, the Emax in experiment [1] came out at 106%; in experiment [2] it was 83%; in experiment [3] it was 58%; in experiment [4], 33%.
For the compound `CCOC(=O)N1CCC2(CC(N3CCC([C@@H]4CCCN4C(=O)NC4CC(F)(F)C4)CC3)C2)C1` (single isomer, unassigned) [2-38 Isomer 2], the EC50 in experiment [1] is 158 nM; in experiment [2] it was 5.01 nM; in experiment [3], more than 20000 nM; in experiment [4], more than 20000 nM. Besides, the Emax was 110% in experiment [1], 115% in experiment [2], 2% in experiment [3] and 1% in experiment [4].
As to `CCOC(=O)N1CCC2(CC(N3CCC([C@@H]4CCCN4C(=O)N4CC(F)(F)C4)CC3)C2)C1` (single isomer, unassigned) [2-39 Isomer 2], the EC50 in experiment [1] was 2510 nM; in experiment [2], 15.8 nM; in experiment [3], more than 20000 nM; in experiment [4], more than 20000 nM. Besides, the Emax in experiment [1] was 41%; in experiment [2] it was 76%; in experiment [3] it was 1%; in experiment [4], 1%.
On to `COC(=O)N1CCC2(CC(N3CCC([C@@H]4CCCN4C(=O)NCC(F)(F)F)CC3)C2)C1` (single isomer, unassigned) [2-40 Isomer 2], for which the EC50 in experiment [1] was 794 nM; in experiment [2] it was 31.6 nM; in experiment [3], more than 20000 nM; in experiment [4] it was more than 20000 nM. The Emax in experiment [1] is 78%; in experiment [2], 90%; in experiment [3] it was 1%; in experiment [4], 2%.
For the compound `CCOC(=O)N1CCC2(CC(N3CCC([C@@H]4CCCN4C(=O)OC4CCC4)CC3)C2)C1` (single isomer, unassigned) [2-43 Isomer 2], the EC50 in experiment [1] is 3160 nM; in experiment [2], 50.1 nM; in experiment [3] it was more than 20000 nM; in experiment [4], more than 20000 nM. Also, the Emax in experiment [1] turned out to be 19%; in experiment [2], 47%; in experiment [3], 5%; in experiment [4] it was 4%.
Turning to `CCOC(=O)N1CCC2(CC(N3CCC([C@@H]4CCCN4C(=O)NCCF)CC3)C2)C1` (single isomer, unassigned) [2-44 Isomer 2], the EC50 in experiment [1] is 316 nM; in experiment [2], 5.01 nM; in experiment [3], more than 20000 nM; in experiment [4] it was more than 20000 nM. Besides, the Emax in experiment [1] stood at 71%; in experiment [2] it was 100%; in experiment [3] it was 8%; in experiment [4] it was 4%.

Source of the values: patent US9926297B2, “Bicyclic AZA compounds as muscarinic M1 receptor and/or M4 receptor agonists” (Heptares Therapeutics Limited, priority 2014, dated 2018).
